According to patent publication US20030226169A1, “DNA sequences encoding antifungal proteins” (priority 1995, published 2003):
Values after ≈ are worked out from the molar mass of the structure shown. Read-outs that look alike come from different tables or passages of the source. Non-standard residues stand in square brackets, D forms with d. Residues, ends and D or L forms follow the SMILES beside them. Abu = CC[C@H](N)C(=O)O

Legend:
[1] = tested on: Fusarium culmorum (IMI 180420); test: Antifungal growth inhibition microplate assay (photospectrometry); format: cell-based; details: for F CULMORUM IC50: Table 7 / FIG. 8: Rs-AFP1-based 12-mer split peptides; for IC50 1/2 PDB: 2 × 10^4 spores/ml
Method: (§1) The following fungal strains were used: Alternaria brassicicola (MUCL 20297), Ascophyta pisi (MUCL 30164), Botrytis cinerea (MUCL 30158), Fusarium culmorum (IMI 180420) and Verticillium dahliae (MUCL 19210).
(§2) Fungi were grown on six cereal agar plates at room temperature and under white fluorescent light except for F culmorum and V dahliae which were grown in the dark. The duration of the spore harvest varied between 10 and 25 days depending on the strain. Spores were collected as follows. Five to ten ml of sterile milli-Q water was poured into each dish and the surface of the agar was rubbed with a sterile spatula to obtain a suspension containing mycelium and spores. This suspension was filtered through a sterile glasswool-plugged funnel and the filtrate containing the spores was collected in a sterile polypropylene centrifuge tube. The A brassicicola spores were suspended in sterile 0.1 Tween 20 (Merk, 822184) due to their hydrophobic nature. The spore suspensions were then washed twice by centrifugation at 2,400×g for 15 minutes and resuspended in a small volume of steril milli-Q water. The spore density was determined in a counting chamber and then adjusted to 4×10^7 spores per ml. Aliquots of the spore suspension were transferred to sterile microtubes and an equal volume of sterile 50% glycerol (Merck, 4091) was added to each tube so that a final spore suspension of 2×10^7 spores per ml in 25% glycerol was obtained. After careful mixing of the stock, the spore suspension was transferred in 100 μl aliquots to sterile microtubes and stored at −80° C.
(§3) Antifungal activity was measured by photospectrometry as described by Broekaert et al, (1990, FEMS Microbiol Lett, 69:55-60). Tests were performed by adding 20 μl of test solution and 80 μl of a fungal spore suspension (2×10^4 spores/ml) per well in a sterile flat-bottom 96-well microtiterplate. The spore suspension was prepared by diluting the stock spore suspension ([…] in 25% glycerol) 1:1000 in half-strength potato dextrose broth. A positive growth control consisting of eight wells containing 20 μl of sterile milli-Q water and 80 μl of the fungal spore suspension was included in each test. The microtiterplates were incubated (with the lid on) in an aerated place at room temperature and under conditions of darkness for all test organisms.
(§4) After 30 minutes of incubation (when the spores are settled on the well bottom) the optical density was measured in a microplate reader (Bio Rad 3550-UV) at 595 nm. Incubation of the microtiterplates continued until the optical density of the control microculture was between 0.250 and 0.500, which took approximately 72 hours (96 hours for V dahliae). Percentage of growth inhibition (% GI) was estimated as 100 times the ratio of the corrected absorbance of the control microculture minus the corrected absorbance of the test microculture over the corrected absorbance of the control microculture at 595 nm. The corrected absorbance values equal the absorbance at 595 nm of the culture measured after 72 or 96 hours minus the absorbance at 595 nm measured after 30 minutes.
(§5) % GI=[(Acontrol−Atest/Acontrol]×100
(§6) where Acontrol=(A72/96h−A30min)control
(§7) The IC50 value is defined as the concentration that gives a 50% growth inhibition after 72 or 96 hours of incubation. The minimum inhibitory concentration (MIC) corresponds to the minimum concentration that gives 100% growth inhibition after 72 or 96 hours incubation.

[2] = tested on: Ascophyta pisi (MUCL 30164); format: cell-based; details: ½ PDB
Method: as §1, §2, §3, §4, §5, §6, §7

[3] = Table 4 / FIG. 6: Rs-AFP2-based 12-mer split peptides, ½ PDB, the source numbers peptides by N-terminal amino acid
[4] = Table 4: Rs-AFP2-based 12-mer split peptides, ½ PDB, triplicate
[5] = ½ PDB, the source numbers peptides by N-terminal amino acid
[6] = Table 7: Rs-AFP1-based 12-mer split peptides, ½ PDB
[7] = Table 7: Rs-AFP1-based 12-mer split peptides
[8] = Table 13: linear β2-β3 loop MPS peptides, duplo
[9] = Table 10: medium 1/16 PDB, one test, fungus not named in Example 7
[10] = Table 10: medium ½ PDB, one test, fungus not named in Example 7

SMILES: CC[C@H](C)[C@H](NC(=O)[C@H](CS)NC(=O)[C@H](CCCCN)NC(=O)[C@H](Cc1c[nH]cn1)NC(=O)[C@H](C)NC(=O)[C@@H]1CCCN1C(=O)[C@H](Cc1ccccc1)NC(=O)[C@@H](NC(=O)[C@H](Cc1ccc(O)cc1)NC(=O)[C@H](CC(N)=O)NC(C)=O)C(C)C)C(=O)N[C@@H](CS)C(=O)N[C@@H](Cc1ccc(O)cc1)C(N)=O [compound 126] (Ac-NYVFPAHKCICY-NH2)
- IC50 [1, 3]: 201 µg/mL (≈ 134 µM)
- MIC [1, 4]: 300 µg/mL (≈ 200 µM)
- F CULMORUM IC50 [1, 5]: 189 µg/mL
- F CULMORUM MIC [1, 6]: 300 µg/mL
- A PISI IC50 [2, 7]: 298 µg/mL
- A PISI MIC [2, 7]: 400 µg/mL

SMILES: CC[C@H](C)[C@H](NC(=O)[C@H](CS)NC(=O)[C@H](CCCCN)NC(=O)[C@H](Cc1c[nH]cn1)NC(=O)[C@H](C)NC(=O)[C@@H]1CCCN1C(=O)[C@H](Cc1ccccc1)NC(=O)[C@@H](NC(=O)[C@H](Cc1ccc(O)cc1)NC(=O)[C@H](CC(N)=O)NC(=O)[C@H](CS)NC(=O)[C@H](CO)NC(C)=O)C(C)C)C(N)=O [compound 124] (Ac-SCNYVFPAHKCI-NH2)
- IC50 [1, 3]: 135 µg/mL (≈ 94.9 µM)
- MIC [1, 4]: 200 µg/mL (≈ 141 µM)
- F CULMORUM IC50 [1, 5]: 213 µg/mL
- F CULMORUM MIC [1, 6]: 300 µg/mL
- A PISI IC50 [2, 7]: 318 µg/mL
- A PISI MIC [2, 7]: >400 µg/mL

SMILES: CC[C@H](C)[C@H](NC(=O)[C@H](CS)NC(=O)[C@H](CCCCN)NC(=O)[C@H](Cc1c[nH]cn1)NC(=O)[C@H](C)NC(=O)[C@@H]1CCCN1C(=O)[C@H](Cc1ccccc1)NC(=O)[C@@H](NC(C)=O)C(C)C)C(=O)N[C@@H](CS)C(N)=O [compound 85] (Ac-VFPAHKCIC-NH2)
- IC50 ([1]; Table 3 / FIG. 6: Rs-AFP2-based 9-mer split peptides, ½ PDB, the source numbers peptides by N-terminal amino acid): 121 µg/mL (≈ 114 µM)
- MIC ([1]; Table 3: Rs-AFP2-based 9-mer split peptides, ½ PDB, duplicate): 200 µg/mL (≈ 189 µM)
- F CULMORUM IC ([1]; Table 6 / FIG. 8: Rs-AFP1-based 9-mer split peptides, ½ PDB, the source numbers peptides by N-terminal amino acid): 121 µg/mL
- F CULMORUM MIC ([1]; Table 6: Rs-AFP1-based 9-mer split peptides, ½ PDB): 200 µg/mL
- A PISI MIC ([2]; Table 6: Rs-AFP1-based 9-mer split peptides): 400 µg/mL
- A PISI IC ([2]; Table 6: Rs-AFP1-based 9-mer split peptides, the source numbers peptides by N-terminal amino acid): 184 µg/mL

SMILES: CC[C@H](C)[C@H](NC(=O)[C@H](CS)NC(=O)[C@H](CCCCN)NC(=O)[C@H](Cc1c[nH]cn1)NC(=O)[C@H](C)NC(=O)[C@@H]1CCCN1C(=O)[C@H](Cc1ccccc1)NC(=O)[C@@H](NC(=O)[C@H](Cc1ccc(O)cc1)NC(C)=O)C(C)C)C(=O)N[C@@H](CS)C(=O)N[C@@H](Cc1ccc(O)cc1)C(=O)N[C@@H](Cc1ccccc1)C(N)=O [compound 127] (Ac-YVFPAHKCICYF-NH2)
- F CULMORUM IC50 [1, 5]: 354 µg/mL
- F CULMORUM MIC [1, 6]: >400 µg/mL
- A PISI IC50 [2, 7]: 302 µg/mL
- A PISI MIC [2, 7]: 400 µg/mL

SMILES: CC[C@H](C)[C@H](NC(=O)[C@H](CS)NC(=O)[C@H](CCCCN)NC(=O)[C@H](Cc1c[nH]cn1)NC(=O)[C@H](C)NC(=O)[C@@H]1CCCN1C(=O)[C@H](Cc1ccccc1)NC(=O)[C@@H](NC(=O)[C@H](Cc1ccc(O)cc1)NC(=O)[C@H](CC(N)=O)NC(=O)[C@H](CS)NC(=O)[C@H](CO)NC(=O)CNC(=O)[C@H](Cc1c[nH]cn1)NC(=O)[C@H](CCCNC(=N)N)NC(=O)[C@H](C)NC(C)=O)C(C)C)C(=O)N[C@@H](CS)C(=O)N[C@@H](Cc1ccc(O)cc1)C(=O)N[C@@H](Cc1ccccc1)C(N)=O [Peptide G1, ARHGSCNYVFPAHKCICYF] (Ac-ARHGSCNYVFPAHKCICYF-NH2)
- IC50 1/2 PDB [1, 8]: ARHGSCNYVFPAHKCICYF 17.6 ± 1.1 μg/ml

SMILES: CC[C@H](NC(=O)[C@H](C)NC(=O)CNC(=O)[C@H](Cc1c[nH]cn1)NC(=O)[C@H](CO)NC(=O)[C@H](C)NC(C)=O)C(=O)N[C@@H](Cc1c[nH]cn1)C(=O)N[C@@H](CCCCN)C(=O)N[C@@H](CCCNC(=N)N)C(=O)N[C@@H](CCC(=O)O)C(=O)N[C@@H](CC(N)=O)C(=O)N[C@@H](Cc1c[nH]cn1)C(=O)N[C@@H](Cc1c[nH]c2ccccc12)C(=O)N[C@@H](CCCCN)C(=O)N[C@@H](CC)C(=O)N[C@@H](Cc1ccccc1)C(=O)N[C@@H](CC)C(=O)N[C@@H](Cc1ccc(O)cc1)C(=O)N[C@@H](Cc1ccccc1)C(N)=O [Peptide J1, ASHGABHKRENHWKBFBYF] (Ac-ASHGA[Abu]HKRENHWK[Abu]F[Abu]YF-NH2)
- antifungal activity compared with peptide G1 (and G2), in words ([1]; 19-mer peptides, Example 7): even more active
- IC50 [1, 9]: 5 µg/mL (≈ 2.16 µM)
- MIC [1, 9]: 6.25 µg/mL (≈ 2.7 µM)
- IC50 [1, 10]: 9 µg/mL (≈ 3.89 µM)
- MIC [1, 10]: 12.5 µg/mL (≈ 5.41 µM)
- IC50 1/2 PDB [1, 8]: 9.1 ± 0.6 µg/mL (≈ 3.94 µM)
- IC50 SMF + pH5 ([1]; Table 13: linear β2-β3 loop MPS peptides, SMF+ (1 mM Ca2+, 50 mM K+) pH5, duplo): 47 ± 33 μg/ml
- IC50 SMF + pH7 ([1]; Table 13: linear β2-β3 loop MPS peptides, SMF+ (1 mM Ca2+, 50 mM K+) pH7, duplo): 173.4 ± 0.2 μg/ml
- activity compared to Rs-AFP counterpart G2 ([1]; ½ PDB): almost two-fold higher activity
